Assay results: patent publication EP0051177A2, “Pharmaceutical preparations containing substituted ether compounds, their use, substituted ether compounds and process for their preparation” (CIBA-GEIGY AG, priority 1980, dated 1982)
Like-named read-outs stand apart in the source and are kept apart here.

Experiments:
[1] = tested on: Krümmungssyndrom an der Ratte; test: Analgesic effect: acetic acid-induced writhing syndrome in the rat; type: in vivo; conditions: peroral, 1 h before i.p. 3 % acetic acid, dose (by interpolation) reducing number of writhings by 50 %, counted for 20 min
Protocol: Diese Wirkung wird durch Auswertung des Krümmungssyndroms an der Ratte bestimmt. Das Krümmungssyndrom wird z.B..in weiblichen Ratten von 120-140 g (5 Tiere pro Gruppe) durch eine intraperitoneale Injektion von 0,2 ml einer 3 %igen Essigsäurelösung eine Stunde nach der oralen Verabreichung der geprüften Substanz, hervorgerufen. Die Krümmungs-Bewegungen der Versuchstiere werden während 20 Minuten gezählt.
Die analgetische (antinociceptive) Wirksamkeit einer Verbindung wird durch die Bestimmung der Dosis (durch Interpolieren), welche bei Kontrolltieren (die lediglich den Trägerstoff der Wirksubstanz erhalten haben) die Anzahl der Krümmungen um 50% vermindert, beurteilt. ( ED50).
Literatur: Ziel et al., Pain Res. and Therapy, Vol. 1, ed. Bonica and Albe, Raven Press N.Y., 1976, p. 517.

LDL-Cholesterin = test: Effect on serum lipids and lipoproteins (LDL cholesterol) in male rats after oral treatment; type: in vivo, Ratten; conditions: 50 mg/kg peroral, once daily for 3 days, twice on day 4, serum 16 h after last dose
From the text: Die in den Präparaten der Erfindung verwendeten Verbindungen zeigen wertvolle pharmakologische Eigenschaften, z.B. hypolipidämische Wirkungen mit günstiger Beeinflussung des Lipoproteinspektrums, ferner, insbesondere Verbindungen der Formel I, worin R3 für einen heterocyelischen Rest aromatischen Charakters, in erster Linie Pyridyl steht, analgetische Effekte. Diese pharmakologischen Eigenschaften können in Tierversuchen, vorzugsweise an Säugetieren, z.B. Ratten nachgewiesen werden. Hierbei können die Verbindungen enteral oder parenteral, vorzugsweise oral, subkutan oder intraperitoneal in einem Dosisbereich von 1 bis 100 mg/kg/Tag verabreicht werden. Beispielsweise wird die Senkung von "low und very low-density"-Lipoproteinen (LDL und VLDL), sowie die Senkung von Cholesterin und Triglyceriden im Serum wie folgt bestimmt: Männlichen Ratten verabreicht man an 3 Tagen einmal täglich 50 mg Wirkstoff peroral. Am 4. Tag werden die Tiere 2-mal behandelt. Am 5. Tag wird Serum gewonnen und die Lipoproteine werden mit einer Ultrazentrifuge aufgetrennt. Im Serum und in den isolierten Lipoproteinfraktionen werden das Cholesterin und die Triglyceride bestimmt. [K.R. Müller und R.G. Cortesi, Artery 4 (6): 564-577 (1978)].
Männliche Ratten von 180-200 g Körpergewicht erhalten an 3 Tagen einmal täglich peroral die Prüfsubstanz gelöst in Polyäthylenglykol 400. Am 4. Tag werden die Tiere zweimal, morgens und abends, behandelt. Nach der letzten Behandlung wird den Tieren das Futter entzogen. Sechzehn Stunden später werden die Ratten getötet. Aus dem Blut wird Serum gewonnen.
Gleiche Mengen Serum von je 2 Ratten aus derselben Gruppe werden vereinigt, und 0.05 EDTA (Aethylendiamintetraessigsäure) und 0,01 % Thimerosal werden zugesetzt. Die Serumlipoproteine werden durch Ultrazentrifugieren in einem Beckman 40.3 Rotor isoliert. Die VLDL (very low density lipoproteins) werden durch 24-stündiges
Zentrifugieren bei 78 000 g und der Dichte 1.006 gewonnen, die LDL (low density lipoproteins) durch 24-stündiges Zentrifugieren bei 78 000 g und der Dichte 1,040, und die HDL (high density lipoproteins) durch 24-stündiges Zentrifugieren bei 109 000 g und der Dichte 1.21.
In jeder Serumprobe und in jeder Lipoproteinfraktion werden Cholesterin und Triglyceride mit enzymatischen Methoden bestimmt. LDL-Cholesterin wurde als wichtigster Parameter für die Beurteilung der Lipidsenkung betrachtet.
Literatur: K.R. Müller und R.G. Cortesi, Artery 4(6):564-577 (1978).
Die Zahlen der folgenden Resultate geben die Aenderungen vom LDL-Cholesterin in % der Kontrolle an. Dosierung: 50 mg/kg peroral.

[2] = Rattus norvegicus, po, read-out: ED50

Row | Molecule | ED50 [1, 2] | Aenderungen vom LDL-Cholesterin in % der Kontrolle (LDL-Cholesterin) | other results
1 | 6-Methyl-2-(3-pyridyl)-5-butyloxy-5H-[1]benzopyrano[4,3-d]pyrimidin |  |  | ED50 [1]: 60 mg/kg
2 | CCOC1Oc2ccccc2-c2nc(-c3ccccn3)ncc21 (stereo not shown) [1-(2-Pyridyl)-5-äthoxy-5H-[1]benzopyrano[4,3-d]pyrimidin] | 15 mg/kg |  | 
3 | CCCOC1Oc2ccccc2-c2nc(-c3cccc(OC)c3)ncc21 (stereo not shown) [2-(3-Methoxy-phenyl)-5-propyloxy-5H-[1]benzopyrano[4,3-d]pyrimidin] |  | -43% | 
4 | CCCCOC1Oc2ccccc2-c2nc(-c3cccnc3)ncc21 (stereo not shown) [2-(3-Pyridyl)-5-butyloxy-5H-[1]benzopyrano[4,3-d]pyrimidin] | 5 mg/kg |  | 
5 | CCOC1Oc2ccccc2-c2nc(-c3cccnc3)ncc21 (stereo not shown) [2-(3-Pyridyl)-5-äthoxy-5H-[1]benzopyrano[4,3-d]pyrimidin] | 1.5 mg/kg |  | 
6 | CCOC1Oc2ccccc2-c2nc(-c3ccc(O)cc3)ncc21 (stereo not shown) [2-(4-Hydroxy-phenyl)-5-äthyloxy-5H-[1]benzopyrano[4,3-d]pyrimidin] |  | -69% | 
7 | CCCOC1Oc2ccccc2-c2nc(-c3ccc(OC)cc3)ncc21 (stereo not shown) [2-(4-Methoxy-phenyl)-5-propyloxy-5H-[1]benzopyrano[4,3-d]pyrimidin] |  | -38% | 
8 | CCCOC1Oc2ccccc2-c2nc(-c3ccncc3)ncc21 (stereo not shown) [2-(4-Pyridyl)-5-propyloxy-5H-[1]benzopyrano[4,3-d]pyrimidin] | 15 mg/kg |  | 
9 | CCCCOC1Oc2ccccc2-c2nc(-c3cccc(C)c3)ncc21 (stereo not shown) [2-(5-Methyl-phenyl)-5-butyloxy-5H-[1]benzopyrano[4,3-d]pyrimidin] |  | -29% | 
10 | CCOC1Oc2ccccc2-c2nc(-c3ccccc3)ncc21 (stereo not shown) [2-Phenyl-5-äthoxy-5H-[1]benzopyrano[4,3-d]pyrimidin] |  | -61% | 
